Publication PMC3282187 (Neuron, 2012)

Test system: neurons of the locus coeruleus (LC); mu opioid receptor-coupled K^+ channels
Assay type: cell-based, rat

Molecule	effect on residual Ba^2+-insensitive outward current	effect on responses to uncaging stimuli
ZD7288	unable to block or occlude	
CC1(C)[C@@H](OC(=O)CCC(=O)O)CC[C@]2(C)[C@H]3C(=O)C=C4[C@@H]5C[C@@](C)(C(=O)O)CC[C@]5(C)CC[C@@]4(C)[C@]3(C)CC[C@@H]12 [carbenoxolone]		not significantly attenuated
Nc1ccncc1 [4-AP]	unable to block or occlude	
